Several values for one entry are separate records, joined by “and”; a condition that tells them apart may be missing. Identical values can stand only once.
Tests used:
[1] = target: T1, Abg (Agrobacterium Sp. β-glucosidase) (Agrobacterium sp., UniProt P12614); assay: Enzymatic hydrolysis at 13 mM studied by quantitative 1H NMR; assay type: biochemical; details: 13 mM substrate in D2O, maleate buffer pD 6.5, Abg 1.6 U/mL, 37 °C
T1 sequence (P12614 1-459): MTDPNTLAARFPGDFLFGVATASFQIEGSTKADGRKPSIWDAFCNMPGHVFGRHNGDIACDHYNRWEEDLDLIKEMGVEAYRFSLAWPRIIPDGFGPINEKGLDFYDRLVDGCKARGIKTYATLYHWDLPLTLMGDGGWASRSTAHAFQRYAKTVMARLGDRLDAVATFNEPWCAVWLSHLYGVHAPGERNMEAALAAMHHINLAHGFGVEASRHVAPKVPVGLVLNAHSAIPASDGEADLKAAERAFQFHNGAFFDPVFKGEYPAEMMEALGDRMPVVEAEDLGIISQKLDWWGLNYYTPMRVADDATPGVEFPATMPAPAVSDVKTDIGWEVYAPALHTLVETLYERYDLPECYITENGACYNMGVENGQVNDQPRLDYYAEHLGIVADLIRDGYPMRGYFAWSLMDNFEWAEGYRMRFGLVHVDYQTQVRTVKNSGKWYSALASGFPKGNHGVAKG

[2] = target: T2, Agrobacterium Sp. β-glucosidase (Abg, GH1 family) (Agrobacterium sp., UniProt P12614); assay: Michaelis-Menten kinetics of enzymatic hydrolysis, release of 4-nitrophenol (absorbance at 405 nm); assay type: biochemical; details: transglycosylation suggested for rate enhancement
T2 sequence (P12614 1-459): T1 sequence (P12614 1-459)
Procedure: Enzymatic reactions were performed in triplo at pH 6.8 (50 mM final concentration) containing 0.1 % bovine serum albumin at 37 °C.[25] Aliquots of 100 μL were taken at constant time periods and added to 100 μL aq. NaOH (0.1 M) in a 96‐well microtitre plate to quench the enzymatic reaction and ensure maximal absorption of sodium 4‐nitrophenolate as outlined in previous studies.[28] The initial rate (vo) was determined normalized on the ∼0.1 U/mL enzyme concentration and plotted against substrate concentration [S]. Non‐linear regression analysis based on 7–10 concentrations depending on the glycoside, was used to determine the Km and k cat values. k cat values were normalized based on the enzyme concentration. […]
Kinetic evaluation of 4- nitrophenyloxymethyl glycosides. Enzyme reactions were performed in triplicate. Substrate samples (final volume of 1 mL) were prepared by diluting carefully prepared substrate stock solutions with sodium phosphate buffer pH 6.8 (50 mM final concentration) containing 0.1% bovine serum albumin and milliQ to the desired concentration. The samples were equilibrated at 37 °C for at least 5 minutes before the enzyme in 50 mM buffer (2 U per ml, 50 uL) was added. Aliquots of 100 µL were taken at constant time periods and added to 100 µL aq. NaOH (0.1 M) in a 96 well microtiter plate to quench the enzymatic reaction. The absorbance was measured at 405 nm using a Tecan Spark M10 plate reader.
Negative assay controls contained no substrate or no enzyme. Rates of the enzymatic reactions were determined at 7 different substrate concentrations from 0.02 – 1.0 mM. Km and kcat values were determined by nonlinear regression analysis using Graphpad 5.0 (GraphPad Software, San Diego, California USA, www.graphpad.com) for fitting the data. Calibration samples at varying concentration (0.05 – 0.5 mM) were prepared similar to the substrate samples in the enzyme reactions by diluting a carefully prepared 4-nitrophenol stock solution with sodium phosphate buffer pH 6.8 (50 mM final concentration) containing 0.1% bovine serum albumin and milliQ to the desired concentration. […]
(T1 determined as 9.13 sec.) was used. Dynamic measurements were started by heating the sample in the NMR to 37 °C and recording a t0-spectrum. Subsequently Abg (V = 2.05 uL, 0.82 U, 1.64 U/mL) was added to the sample outside of the NMR. The sample was mixed by shaking and quickly reintroduced to the NMR.
The time of enzyme addition was recorded as t0. Spectra were recorded over an appropriate time- scale with the relaxation delay at 3*T1 of the internal standard.
In vivo experiments were performed at the company Charles Rivers (Den Bosch, The Netherlands) in accordance with Dutch law of animal experiments and under approval of the central committee of animal experiments (CCD). Relative and absolute bioavailability may be determined in different animal models and according to different protocols.
The following protocol is typical for determining bioavailability in female Beagle dogs. The animals were deprived from food over a time period of 8 h prior to administration and 2 h after administration of the test molecules. Water was supplied without limitation. On the study day, the animals received test molecule 10h […]
ethanol and 0.9% NaCl + 5% mannitol in water. Blood samples were collected from the jugular vein on the […]

[3] = target: T1, Abg (Agrobacterium Sp. β-glucosidase); assay: Enzymatic conversion of glycoside-drug conjugates at 200 μM analyzed by HPLC; assay type: biochemical; details: 37 °C; for Product release: 200 μM substrate, 50 mM phosphate buffer pH 6.8, Abg 0.1 U/mL
[4] = Control experiments without enzyme (stability in assay buffer); assay type: physicochemical; details: 200 μM, 50 mM phosphate buffer pH 6.8, 37 °C, HPLC
[5] = pH stability test and stability in formulation; assay type: physicochemical
Procedure: In vivo experiments. […] To investigate the chemical stability towards conditions in the gastrointestinal tract, we performed pH stability test. […] The pharmacokinetic profile of 10 h was studied in a dog‐animal model (adult beagle).

[6] = In vivo pharmacokinetics study after oral gavage, losartan in blood by LC-MS-MS; set-up: species or system female Beagle dogs; details: 15 μmol/kg oral gavage, Beagle dog; for Intact conjugate in the blood circulation: LC-MS-MS

O=[N+]([O-])c1ccc(OCO[C@@H]2O[C@H](CO)[C@@H](O)[C@H](O)[C@H]2O)cc1 [5 a, 4‐nitrophenyloxymethyl glucoside]
Release of 4-nitrophenol followed by 1H NMR (in words) [1]: showed release of 4‐nitrophenol

O=[N+]([O-])c1ccc(O[C@@H]2O[C@H](CO)[C@@H](O)[C@H](O)[C@H]2O)cc1 [6 a, reference compound]
V0 at high substrate concentration (in words) [2]: followed a horizontal asymptote | Release of 4-nitrophenol followed by 1H NMR (in words) [1]: release of 4‐nitrophenol

O=c1[nH]c(=O)n(CO[C@@H]2O[C@H](CO)[C@@H](O)[C@H](O)[C@H]2O)cc1F [10 f]
Product release ([3]; 0.5 h): 46% and 45.8±5.2% | Product release ([3]; 1.0 h): 65.2±1.5% | Product release ([3]; 2.0 h): 77.8±9.7% | Degradation in the control experiment (without enzyme) [4]: no degradation was observed

CCCCc1nc(Cl)c(CO)n1Cc1ccc(-c2ccccc2-c2nnnn2CO[C@@H]2O[C@H](CO)[C@@H](O)[C@H](O)[C@H]2O)cc1 [10 h]
Stability in formulation ([5]; formulation for oral gavage): stable in formulation | Chemical stability under acidic conditions ([5]; pH 1–2): stable for 16 h | Release of the parent drug under acidic conditions ([5]; pH 1–2, 16 h): did not show any release of the parent drug | Enzymatic hydrolysis by Abg (in words) ([3]; 200 μM, HPLC, in presence of 5 % ethanol): hydrolyzed efficiently | Product release ([3]; 0.5 h, in presence of 5 % ethanol): 29.3±0.24% | Product release ([3]; 1.0 h, in presence of 5 % ethanol): 50.4±0.4% | Product release ([3]; 2.0 h, in presence of 5 % ethanol): 77.2±0.7% | Maximum concentration (Cmax) of losartan versus dosing of parent (in words) [6]: higher | Intact conjugate in the blood circulation [6]: no intact conjugate was detected | Intact conjugate in the blood circulation ([6]; listed as 19): no conjugate was detected
